Results from publication PMC5469273, “Discovery of Novel Small-Molecule Inhibitors of LIM Domain Kinase for Inhibiting HIV-1” (Journal of Virology, 2017).

Legend:
[1] = system: HIV-1(NL4-3); format: cell-based
[2] = system: HIV-1(NL4-3); assay: microbe, parasite or virus in culture; format: cell-based; conditions: Human immunodeficiency virus 1, NL43; pretreated 1 h, HIV-1(NL4-3) 3 h, washed, 48 h; luciferase; read-out: IC50, inhibition of HIV
[3] = system: HIV-1(Env); format: cell-based
[4] = system: HIV DNA-transfected HEK293 cells; format: cell-based, HIV-1; conditions: different concentrations, 48 h
[5] = system: EBOV (Zaire); format: cell-based, Zaire ebolavirus; conditions: HFF-1 cells, pretreated 2 h, MOI 2.5, 48 h in continuous presence
[6] = system: RVFV-Luc (MP12); assay: microbe, parasite or virus in culture; format: cell-based; conditions: Rift Valley fever virus, Vero, 24 h, read-out: IC50, inhibition of RVFV
[7] = system: VEEV-Luc (TC-83) and VEEV (TC-83); assay: microbe, parasite or virus in culture; format: cell-based; conditions: Venezuelan equine encephalitis virus, Vero, read-out: IC50, inhibition of VEEV
[8] = system: HSV-1; assay: HSV-1 plaque assay in Vero cells; format: cell-based, herpes simplex virus 1
[9] = in vitro; conditions: human
[10] = target: ALK (Homo sapiens, UniProt Q9UM73); assay: Kinase profiling (Reaction Biology): ALK
[11] = target: ABL1 (Homo sapiens, UniProt P00519); assay: Kinase profiling (Reaction Biology): ABL1
[12] = target: AKT2 (Homo sapiens, UniProt P31751); assay: Kinase profiling (Reaction Biology): AKT2
[13] = target: PKA (Homo sapiens, UniProt P17612); assay: Kinase profiling (Reaction Biology): PKA
[14] = target: RET (Homo sapiens, UniProt P07949); assay: Kinase profiling (Reaction Biology): RET
Chain of RET (P07949 29-1114): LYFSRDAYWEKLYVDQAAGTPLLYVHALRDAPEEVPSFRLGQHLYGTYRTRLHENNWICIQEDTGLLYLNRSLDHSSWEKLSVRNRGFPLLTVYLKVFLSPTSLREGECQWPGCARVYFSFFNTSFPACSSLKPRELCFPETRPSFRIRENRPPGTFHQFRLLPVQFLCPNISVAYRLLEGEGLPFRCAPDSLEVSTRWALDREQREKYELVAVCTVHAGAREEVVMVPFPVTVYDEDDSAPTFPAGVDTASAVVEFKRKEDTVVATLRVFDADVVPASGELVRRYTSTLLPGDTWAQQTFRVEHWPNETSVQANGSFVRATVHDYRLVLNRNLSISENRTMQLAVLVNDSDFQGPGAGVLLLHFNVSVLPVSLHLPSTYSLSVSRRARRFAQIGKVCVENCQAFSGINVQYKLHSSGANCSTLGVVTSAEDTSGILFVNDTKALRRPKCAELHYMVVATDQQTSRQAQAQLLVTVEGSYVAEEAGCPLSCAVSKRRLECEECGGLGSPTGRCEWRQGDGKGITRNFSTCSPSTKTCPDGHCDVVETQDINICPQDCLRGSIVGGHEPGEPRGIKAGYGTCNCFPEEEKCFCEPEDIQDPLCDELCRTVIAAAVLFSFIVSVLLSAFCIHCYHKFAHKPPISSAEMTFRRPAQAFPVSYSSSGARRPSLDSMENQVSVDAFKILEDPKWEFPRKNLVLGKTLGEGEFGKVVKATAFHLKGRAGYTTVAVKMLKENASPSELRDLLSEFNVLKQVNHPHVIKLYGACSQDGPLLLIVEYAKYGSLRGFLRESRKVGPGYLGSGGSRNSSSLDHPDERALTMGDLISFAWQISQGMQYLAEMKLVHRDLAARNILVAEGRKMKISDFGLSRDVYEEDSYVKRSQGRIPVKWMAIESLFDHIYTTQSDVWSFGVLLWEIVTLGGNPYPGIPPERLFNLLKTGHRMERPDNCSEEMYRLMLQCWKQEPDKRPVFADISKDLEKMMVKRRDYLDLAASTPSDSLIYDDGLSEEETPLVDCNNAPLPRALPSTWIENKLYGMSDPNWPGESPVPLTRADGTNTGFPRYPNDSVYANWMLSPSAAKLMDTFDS

[15] = target: EGFR (Homo sapiens, UniProt P00533); assay: Kinase profiling (Reaction Biology): EGFR
[16] = target: JAK3 (Homo sapiens, UniProt P52333); assay: Kinase profiling (Reaction Biology): JAK3
Chain of JAK3 (P52333 whole entry): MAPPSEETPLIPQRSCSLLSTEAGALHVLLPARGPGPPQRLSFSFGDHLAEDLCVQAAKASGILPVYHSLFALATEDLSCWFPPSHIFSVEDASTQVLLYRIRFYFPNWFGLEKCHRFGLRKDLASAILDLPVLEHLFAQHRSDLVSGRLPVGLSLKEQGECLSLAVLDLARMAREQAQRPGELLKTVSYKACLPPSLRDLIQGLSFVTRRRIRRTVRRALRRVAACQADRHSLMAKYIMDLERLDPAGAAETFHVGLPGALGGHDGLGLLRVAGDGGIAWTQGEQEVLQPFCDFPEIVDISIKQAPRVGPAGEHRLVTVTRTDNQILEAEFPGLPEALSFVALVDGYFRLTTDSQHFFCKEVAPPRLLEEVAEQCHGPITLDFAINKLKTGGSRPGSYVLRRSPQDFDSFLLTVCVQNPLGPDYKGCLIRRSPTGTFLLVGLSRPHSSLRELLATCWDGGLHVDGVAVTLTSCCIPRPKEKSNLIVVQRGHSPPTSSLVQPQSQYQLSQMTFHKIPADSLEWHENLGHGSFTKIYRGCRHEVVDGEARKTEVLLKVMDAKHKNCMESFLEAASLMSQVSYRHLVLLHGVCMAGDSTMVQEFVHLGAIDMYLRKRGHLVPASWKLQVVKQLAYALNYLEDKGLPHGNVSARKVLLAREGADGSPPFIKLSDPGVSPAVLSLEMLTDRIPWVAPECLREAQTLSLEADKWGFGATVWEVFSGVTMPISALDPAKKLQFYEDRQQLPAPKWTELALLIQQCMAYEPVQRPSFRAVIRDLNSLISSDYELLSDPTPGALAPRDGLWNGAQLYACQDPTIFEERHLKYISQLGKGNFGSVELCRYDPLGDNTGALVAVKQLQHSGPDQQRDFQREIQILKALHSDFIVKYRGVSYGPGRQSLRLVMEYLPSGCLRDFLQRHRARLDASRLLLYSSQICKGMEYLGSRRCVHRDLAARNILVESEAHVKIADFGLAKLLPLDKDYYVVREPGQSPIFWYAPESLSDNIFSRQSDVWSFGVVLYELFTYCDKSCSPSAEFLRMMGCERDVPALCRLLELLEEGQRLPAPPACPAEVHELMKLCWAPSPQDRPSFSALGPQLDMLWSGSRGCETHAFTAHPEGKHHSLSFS

[17] = target: NEK1 (Homo sapiens, UniProt Q96PY6); assay: Kinase profiling (Reaction Biology): NEK1
[18] = target: PAK2 (Homo sapiens, UniProt Q13177); assay: Kinase profiling (Reaction Biology): PAK2
[19] = target: PIM2 (Homo sapiens, UniProt Q9P1W9); assay: Kinase profiling (Reaction Biology): PIM2
Chain of PIM2 (Q9P1W9 whole entry): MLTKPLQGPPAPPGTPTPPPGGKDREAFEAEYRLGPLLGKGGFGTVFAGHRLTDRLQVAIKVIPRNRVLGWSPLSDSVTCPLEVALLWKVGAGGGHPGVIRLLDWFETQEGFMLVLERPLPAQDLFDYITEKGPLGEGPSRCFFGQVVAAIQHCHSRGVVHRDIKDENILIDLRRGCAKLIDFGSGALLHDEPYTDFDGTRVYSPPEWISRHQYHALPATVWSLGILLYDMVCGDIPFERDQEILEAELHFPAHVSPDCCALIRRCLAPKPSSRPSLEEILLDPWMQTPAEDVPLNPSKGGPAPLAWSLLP

[20] = target: RSK1 (Homo sapiens, UniProt Q15418); assay: Kinase profiling (Reaction Biology): RSK1
Chain of RSK1 (Q15418 whole entry): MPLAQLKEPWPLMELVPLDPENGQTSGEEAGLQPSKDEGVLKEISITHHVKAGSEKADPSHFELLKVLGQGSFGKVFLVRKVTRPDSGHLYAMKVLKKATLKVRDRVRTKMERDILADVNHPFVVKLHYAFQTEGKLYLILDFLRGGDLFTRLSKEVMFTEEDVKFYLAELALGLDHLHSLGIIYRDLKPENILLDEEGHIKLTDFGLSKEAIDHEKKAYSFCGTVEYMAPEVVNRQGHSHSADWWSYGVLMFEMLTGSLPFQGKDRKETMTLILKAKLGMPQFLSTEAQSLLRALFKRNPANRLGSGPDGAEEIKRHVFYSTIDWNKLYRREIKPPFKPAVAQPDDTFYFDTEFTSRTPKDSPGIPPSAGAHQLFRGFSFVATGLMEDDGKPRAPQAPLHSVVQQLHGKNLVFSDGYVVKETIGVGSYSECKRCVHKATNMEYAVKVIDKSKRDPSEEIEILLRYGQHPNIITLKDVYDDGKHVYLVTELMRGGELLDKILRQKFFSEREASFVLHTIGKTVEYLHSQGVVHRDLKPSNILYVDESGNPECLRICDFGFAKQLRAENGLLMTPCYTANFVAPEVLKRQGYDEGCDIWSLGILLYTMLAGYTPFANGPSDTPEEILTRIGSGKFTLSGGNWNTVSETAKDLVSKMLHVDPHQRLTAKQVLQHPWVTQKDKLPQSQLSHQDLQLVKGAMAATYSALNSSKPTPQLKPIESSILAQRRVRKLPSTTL

[21] = target: TAK1 (Homo sapiens, UniProt O43318); assay: Kinase profiling (Reaction Biology): TAK1
[22] = target: TBK1 (Homo sapiens, UniProt Q9UHD2); assay: Kinase profiling (Reaction Biology): TBK1
[23] = target: c-MET (Homo sapiens, UniProt P08581); assay: Kinase profiling (Reaction Biology): c-MET
[24] = target: c-Src (Homo sapiens, UniProt P12931); assay: Kinase profiling (Reaction Biology): c-Src
[25] = target: DAPK1 (Homo sapiens, UniProt P53355); assay: Kinase profiling (Reaction Biology): DAPK1
[26] = target: EPHA3 (Homo sapiens, UniProt P29320); assay: Kinase profiling (Reaction Biology): EPHA3
[27] = target: GSK3b (Homo sapiens, UniProt P49841); assay: Kinase profiling (Reaction Biology): GSK3b
[28] = target: LIMK1 (Homo sapiens, UniProt P53667); assay: Kinase profiling (Reaction Biology): LIMK1
Chain of LIMK1 (P53667 whole entry): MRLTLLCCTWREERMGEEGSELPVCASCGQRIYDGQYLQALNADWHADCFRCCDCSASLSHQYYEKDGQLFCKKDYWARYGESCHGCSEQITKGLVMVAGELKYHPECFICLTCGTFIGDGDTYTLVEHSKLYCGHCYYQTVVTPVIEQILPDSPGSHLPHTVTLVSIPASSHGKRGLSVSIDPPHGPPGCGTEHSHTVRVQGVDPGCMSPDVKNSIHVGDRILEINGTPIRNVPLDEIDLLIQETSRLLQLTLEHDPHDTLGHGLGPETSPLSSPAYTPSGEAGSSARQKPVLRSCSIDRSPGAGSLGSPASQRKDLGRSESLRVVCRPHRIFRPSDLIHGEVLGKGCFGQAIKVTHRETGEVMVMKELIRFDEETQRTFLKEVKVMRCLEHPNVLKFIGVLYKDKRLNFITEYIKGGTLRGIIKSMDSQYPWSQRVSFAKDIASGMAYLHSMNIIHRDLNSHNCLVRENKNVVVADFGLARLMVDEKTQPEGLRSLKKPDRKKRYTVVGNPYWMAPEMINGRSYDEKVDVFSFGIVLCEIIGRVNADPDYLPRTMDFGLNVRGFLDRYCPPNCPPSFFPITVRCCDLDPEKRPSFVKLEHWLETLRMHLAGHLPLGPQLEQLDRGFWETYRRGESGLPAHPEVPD

[29] = target: ROCK1 (Homo sapiens, UniProt Q13464); assay: Kinase profiling (Reaction Biology): ROCK1
[30] = target: TAOK1 (Homo sapiens, UniProt Q7L7X3); assay: Kinase profiling (Reaction Biology): TAOK1
[31] = target: TESK1 (Homo sapiens, UniProt Q15569); assay: Kinase profiling (Reaction Biology): TESK1
[32] = target: PDGFRb (Homo sapiens, UniProt P09619); assay: Kinase profiling (Reaction Biology): PDGFRb
Chain of PDGFRb (P09619 33-1106): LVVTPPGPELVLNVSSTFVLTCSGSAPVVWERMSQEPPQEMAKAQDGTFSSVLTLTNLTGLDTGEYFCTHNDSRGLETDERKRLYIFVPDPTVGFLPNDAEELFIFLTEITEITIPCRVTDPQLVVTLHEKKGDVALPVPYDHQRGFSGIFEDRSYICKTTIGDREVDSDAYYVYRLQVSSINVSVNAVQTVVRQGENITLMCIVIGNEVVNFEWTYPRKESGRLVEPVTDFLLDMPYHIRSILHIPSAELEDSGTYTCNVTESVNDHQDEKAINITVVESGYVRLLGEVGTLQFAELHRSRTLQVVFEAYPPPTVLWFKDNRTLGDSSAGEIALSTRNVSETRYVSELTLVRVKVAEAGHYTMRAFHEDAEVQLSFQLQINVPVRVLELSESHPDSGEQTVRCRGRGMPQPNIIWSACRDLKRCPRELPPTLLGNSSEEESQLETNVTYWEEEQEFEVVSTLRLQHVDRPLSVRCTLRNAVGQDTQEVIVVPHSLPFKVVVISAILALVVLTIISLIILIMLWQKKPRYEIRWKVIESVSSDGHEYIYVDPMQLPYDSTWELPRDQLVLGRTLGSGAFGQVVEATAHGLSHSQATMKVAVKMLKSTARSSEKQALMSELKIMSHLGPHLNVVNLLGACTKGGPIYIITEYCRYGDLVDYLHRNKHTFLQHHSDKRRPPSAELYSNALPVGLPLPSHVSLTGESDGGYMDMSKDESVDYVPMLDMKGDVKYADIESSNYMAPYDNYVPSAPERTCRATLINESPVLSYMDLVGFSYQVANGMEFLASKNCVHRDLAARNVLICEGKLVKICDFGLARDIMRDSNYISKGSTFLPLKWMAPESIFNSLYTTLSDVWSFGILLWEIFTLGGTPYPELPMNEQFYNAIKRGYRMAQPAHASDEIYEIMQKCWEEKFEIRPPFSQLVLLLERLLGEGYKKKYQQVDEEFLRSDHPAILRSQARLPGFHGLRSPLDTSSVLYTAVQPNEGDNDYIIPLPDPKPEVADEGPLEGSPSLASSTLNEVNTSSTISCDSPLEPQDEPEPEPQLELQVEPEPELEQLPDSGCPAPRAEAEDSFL

[33] = target: AMPK(A1/B1/G1) (Homo sapiens, UniProt Q13131); assay: Kinase profiling (Reaction Biology): AMPK(A1/B1/G1)
[34] = target: p70S6K/RPS6KB1 (Homo sapiens, UniProt P23443); assay: Kinase profiling (Reaction Biology): p70S6K/RPS6KB1; conditions: read-out: inhibition of p70S6K
[35] = system: phosphorylation of PAK2; assay: Western blotting for PAK2 phosphorylation in CEM-SS T cells; conditions: 100 μM, time course

COC(=O)c1ccc2[nH]c(C3CCN(c4ncnc5[nH]cc(Cl)c45)CC3)nc2c1 [Compound R10015, Methyl 2-(1-(5-chloro-7H-pyrrolo[2,3-d]pyrimidin-4-yl)piperidin-4-yl)-1H-benzo[d]imidazole-5-carboxylate]
Infectivity (percentage of GFP+ cells) ([1]; 100 μM, pretreated 1 h, HIV-1(NL4-3) 3 h, washed, 48 h, viable cells only, paired DMSO controls 1.76-3.37%): 0.43%
X4 HIV infection in screening ([1]; at nontoxic dosages, […], Fig. 1C and 2): blocked
IC50 [2]: 14.9 µM
viral late DNA synthesis [3]: inhibited
virion release from HIV DNA-transfected HEK293 cells [4]: inhibited
inhibition of EBOV [5]: dose-dependent inhibition
IC50 [6]: ~12.5 µM
IC50 [7]: ~5 µM
inhibition of HSV-1 (viral plaques) [8]: inhibition
viability at 100 µM [9]: 89.2%
activity at 1 µM [10]: 95.5%
activity at 1 µM [11]: 89.2%
activity at 1 µM [12]: 73.1%
activity at 1 µM [13]: 24%
inhibition at 1 µM ([13]; read-out: inhibition of protein kinase A (PKA)): ~76%
activity at 1 µM [14]: 46.5%
activity at 1 µM [15]: 93.2%
activity at 1 µM [16]: 61.1%
activity at 1 µM [17]: 67.2%
activity at 1 µM [18]: 98.2%
activity at 1 µM [19]: 97.6%
activity at 1 µM [20]: 47.2%
activity at 1 µM [21]: 82.4%
activity at 1 µM [22]: 82%
activity at 1 µM [23]: 82.1%
activity at 1 µM [24]: 92.4%
activity at 1 µM [25]: 87.8%
activity at 1 µM [26]: 91.1%
activity at 1 µM [27]: 67.8%
activity at 1 µM [28]: 6.4%
activity at 1 µM [29]: 42.3%
activity at 1 µM [30]: 54%
activity at 1 µM [31]: 90.2%
activity at 1 µM [32]: 78.6%
activity at 1 µM [33]: 76.6%
inhibition at 1 µM [34]: ≥ 90%
phosphorylation of PAK2 [35]: not affected
